1 substance from patent publication US10358469B2, “Methods and pharmaceutical compositions for the treatment of cancer” (INSERM (INSTITUT NATIONAL DE LA SANTÉ ET DE LA RECHERCHE …, priority 2014, dated 2019) can be followed below.

For one experiment, the system named is D3H2LN cells. Nature of the experiment: Matrigel invasion assay, D3H2LN cells. The following applies: 2 μM, toward 10% FBS, 24 h, FIG. 7B. It counts as cell-based. The protocol:
FIG. 7: Antp-AAC-11-LZ (363-399) peptide inhibits cell migration and invasion. (A) D3H2LN cells were added to the upper well of modified Boyden chamber (transwell) plates with a vehicle or with either 2 μM of the Antp-AAC-11-LZ (363-399) peptide or the Antp-only peptide and subjected to a transwell migration assay as described under Materials and methods. The cells were allowed to migrate toward 10% FBS for 12 […]h. Triplicate wells were used for each of three independent experiments. The results are expressed relative to the migration of the untreated cells (=100%). Column: Mean of three experiments. Bar: s.e. P-value was determined by Student's t-test (*P<0.01). (B) D3H2LN cells were seeded in a Matrigel-coated Boyden chamber with a vehicle or with either 2 μM of the Antp-AAC-11-LZ (363-399) peptide or the Antp-only peptide and subjected to a transwell migration assay as described under Materials and methods. The cells were allowed to migrate toward 10% FBS for 24 […]h. Triplicate wells were used for each of three independent experiments. The results are expressed relative to the migration of the untreated cells (=100%). Column: Mean of three experiments. Bar: s.e. P-value was determined by Student's t-test (*P<0.01) […]

For a further experiment, the system named is SeAx cells. The experiment can be described thus: Propidium iodide (PI) uptake, flow cytometry, SeAx cells. It counts as cell-based. The note with it: 4 μM. The protocol: (A) SeAx or HaCat cells cultured in the absence of 10% FBS were left untreated or treated with 4 μM or 10 μM, respectively, of the Antp-AAC-11-LZ (363-399) peptide for the indicated durations. Cells were then analyzed by flow cytometry for PI staining. The results represent the mean number of PI-positive cells±S.D. from at least three independent experiments. (B) A549 and HaCat cells were plated at a densities of 4.5×10^3 in 96 well plates (100 μL total volume per well) and allowed to attach overnight in a 37° C. incubator (5% CO2). […] Lactate dehydrogenase (LDH) activity released in the culture medium was then assessed and data expressed as a percentage of the maximal level (Max) of LDH activity determined after total cell lysis±S.D. from at least three independent experiments.
(A) SeAx cultured in the absence of 10% FBS were left untreated or treated with 4 μM of the indicated Antp-AAC-11-LZ peptides for various times. Cells were then analyzed by flow cytometry for PI staining. […] Lactate dehydrogenase (LDH) activity released in the culture medium was then assessed and data expressed as a percentage of the maximal level (Max) of LDH activity determined after total cell lysis±S.D.
Cell death was evaluated upon staining with propidium iodide and flow cytometry analysis. […]

On to “Ac-RQIKIWFKKQNRRMKWKKAKLNAEKLKDFKIRLQYFARGLQVYIRQLRLALQGKT-NH2 [Antp-AAC-11-LZ (363-399)]”, for which, in the experiment on D3H2LN cells, the cell invasion result was “prevented invasion”. The same substance displayed a PI positive cells in the experiment on SeAx cells (5 minutes, absence of 10% FBS) of 90%. In addition, the “PI positive cells, course after 5 minutes” value in the experiment on SeAx cells (up to 60 minutes) is “remained unchanged”.
